According to publication PMC10393279, “Can BioSAXS detect ultrastructural changes of antifungal compounds in Candida albicans?–an exploratory study” (Frontiers in Pharmacology, 2023):
Read-outs that look alike come from different tables or passages of the source. No end group written: not given here.

What was measured:
erythrocytes = system: erythrocytes; set-up: method as in 3 sources, one per row (each row's own in cited_ref): ref Cerovsky et al., 2009 ||| ref Cao et al., 2012; Almaaytah and Albalas, 2014 ||| ref Hirai et al., 1981; conditions: cited from earlier work
C. albicans [1] = assay: microbe, parasite or virus in culture; type: cell-based, Candida albicans; conditions: broth microdilution, 30°C
Procedure: In this project, we used a clinical isolate of C. albicans obtained from Tim Planche (St. George’s, University of London).
Mueller-Hinton broth (MHb) (Merck, Life Science UK Limited, Dorset, UK) was prepared to concur with the manufacturer’s directions and supplemented with 2% glucose to grow C. albicans. Liquid cultures were incubated at 30°C for 18–20 h on a shaker, and culture on solid media was incubated for 18–24 h at 30°C.
When it comes to determining the antimicrobial activity of antimicrobial peptides (AMPs) there are unfortunately many different approaches reported. Many AMPs are negatively affected by positively charged ions and other components of growth media, therefore Mueller-Hinton broth (MHb) is frequently used since it supports the growth of many organisms and seems to interfere little with the activity of most AMPs. The […] of Flucytosine and antifungal peptides were determined using a protocol (option E) of the highly cited publication by [Wiegand et al. (2008)] optimized for the work with antimicrobial peptides. This protocol uses MHb (0.2% beef extract, 1.75% casein hydrolysate). To adopt that media for the growth of yeast 2% glucose was added. For comparison, YPD complex medium (1% yeast extract, 2% peptone, 2% dextrose) is often used for the growth of yeast. Where this media provides the best activity for antimicrobial peptides the results should be carefully used when comparing MIC values to other antifungals measured in different growth media. A broth microdilution assay was applied using 6 × 10^5 CFU/mL at 30°C. MICs were determined by the unaided eye, as the concentration in which no growth was observed.

sheep erythrocytes = conditions: ref Andreu et al., 1992, Edlund et al., 1998; cited from earlier work
human erythrocytes = conditions: no method in this paper, ref Grimsey et al., 2020; cited from earlier work
C. albicans [2] = assay: BioSAXS ultrastructural changes, principal component analysis of scattering curves; type: cell-based, Candida albicans; conditions: 2xMIC, 40 min
Procedure: A detailed description of the sample preparation for BioSAXS, the BioSAXS measurement and consequently the data evaluation methods can be found in the open-source publication by [Von Gundlach et al. (2019)]. Briefly, an aliquot of an overnight culture of a clinical isolate of C. albicans was diluted in Mueller-Hinton broth (MHb) and incubated for 2.5 h at 30°C on a shaker (225 rpm) to achieve log phase growth. The C. albicans culture was adjusted to have 1.2 × 10^6 CFU/mL and aliquoted. The aliquots were then mixed with either sterile water or antifungal solution (2xMIC) to provide 6 × 10^5 CFU/mL aliquots. Those were further incubated for 40 min at 30°C at 225 rpm. All aliquots were then centrifuged at 10,000 rpm and washed 3 times in ml 0.1 M PIPES [piperazine-N,N′-bis(2-ethanesulfonic acid)] buffer, pH 7.0. After washing, the pellet was resuspended in 1 mL of 2.5% glutaraldehyde v/v in PIPES buffer and fixated for 1 h at room temperature at 225 rpm. Consequently, the samples were washed 3 times with PBS buffer and resuspended in 100 µL of PBS and stored at 5°C.
The SAXS measurements were performed on the P12 BioSAXS beamline, EMBL (DESY, Hamburg), using a double crystal Si (111) monochromator. An energy of 10 keV with a 10^13 s^−1 photon flux was used. 30 μL of each sample was injected into the measuring chamber by an automatic sample robot (Arinax, BioSAXS), the focus of the X-ray beam was 0.2 × 0.12 mm. The scattering signal was recorded with a Pilatus 2 M detector (Dectris, Switzerland). For each sample, 20 measurements were made with 0.05 s exposure. Before and after each measurement the background was measured and automatically subtracted from the SAXS curves. Data analysis and evaluation were done using the open-source software SciXMiner (“Peptide Extension”) ([Mikut, 2010]; [Mikut et al., 2017]). To determine differences in the scattering curves between treated and untreated samples as well as between the different treatments a principal component analysis (PCA) was applied to the scattering curves. The data are measurements of about 100,000 cells that were measured 20 times to obtain the scattering curves. SAXS curves were averaged and the standard deviation was used as an error bar. The PCA analysis was carried out in the frequency range between 0.05–0.4 nm^−1, and errors were propagated from the single SAXS curves (see Supplementary Figure S1).

[3] = Mueller-Hinton broth + 2% glucose, 6 × 10^5 CFU/ml C. albicans clinical isolate, read by unaided eye, n = 3, modal values
[4] = 6 × 10^5 CFU/mL, PCA range 0.05–0.4 nm^−1

Compound: VNWKKILGKIIKVVK-NH2 [Lasioglossin LL-III]
- hemolytic and cytotoxic activity (erythrocytes; ref Cerovsky et al., 2009): low
- MIC (C. albicans [1]; [3]): 36 µM

Compound: KWKLFKKIGAVLKVL-NH2
- hemolytic activity (sheep erythrocytes): > 500 µg/mL
- MIC (C. albicans [1]; [3]): 18 µM

Compound: KRRVRWIIW-NH2 [OptP7]
- HC50 (hemolysis) (human erythrocytes): > 250 µg/mL
- MIC (C. albicans [1]; [3]): 24 µM

Compound: FIGAIARLLSKIFGKR-NH2 [Bmkn2]
- HC50 (hemolysis) (erythrocytes; ref Cao et al., 2012, Almaaytah and Albalas, 2014): 17.13 µg/mL
- MIC (C. albicans [1]; [3]): 18 µM

Compound: INLKAIAALAKKLL-NH2 [Mastoparan M]
- hemolytic activity (erythrocytes; ref Hirai et al., 1981): very little
- MIC (C. albicans [1]; [3]): 22 µM

Compound: Nc1[nH]c(=O)ncc1F [Flucytosine]
- PC1 value, rank in the set of six antifungal compounds (C. albicans [2]): second-lowest
- PC2 value compared to the untreated cells (direction) (C. albicans [2]): increased
- PC2 value, rank in the set of six antifungal compounds (C. albicans [2]): highest
- ΔPC1 (treated versus untreated), sign (C. albicans [2]): positive
- increase of PC2 versus untreated sample (C. albicans [2]; [4]): about 1 unit
- reduction of PC1 versus untreated sample (C. albicans [2]; [4]): about 6 units
- MIC (C. albicans [1]; Candida albicans, MHb + 2% glucose, 6 × 10^5 CFU/mL C. albicans clinical isolate, read-out: MIC): 8 µg/mL
